Patent publication US20230278972A1, “SUBSTITUTED HALOALKYL SULFONANILIDE HERBICIDES” (FMC Corporation, priority 2020, published 2023)

How the values were obtained:
Assay type in all cases: in vivo
[1] = tested on: pigweed (Amaranthus retroflexus); assay: Test A preemergence, pigweed; details: for Plant response rating, Pigweed: 0 to 100 scale (0 no effect, 100 complete control); for Pigweed plant response rating: visual injury on 0 to 100 scale (0 no effect, 100 complete control), approximately 10 days
Outline: (§1)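 Pots: loam soil/sand blend. Pre: directed soil spray at planting. Post: plants 2–10 cm, 1–2 leaf stage. Formulation: non-phytotoxic solvent + surfactant.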

corn (Zea mays) = assay: Test A postemergence, corn; details: Postemergence, 0 to 100 scale (0 no effect, 100 complete control); for Corn plant response rating: visual injury vs untreated controls after approx. 10 days
Outline: (§2)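 Formulated with a surfactant in a non-phytotoxic solvent, compounds are applied to loam–sand pots, either to bare soil immediately after seeding (preemergence) or to seedlings of 2 to 10 cm bearing one to two leaves (postemergence).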

[2] = tested on: Ryegrass, Italian (Italian ryegrass, Lolium multiflorum); assay: Test A preemergence, Ryegrass, Italian; details: Preemergence; for Plant response rating, Ryegrass, Italian: 0 to 100 scale (0 no effect, 100 complete control); for Ryegrass, Italian plant response rating: visual injury on 0 to 100 scale (0 no effect, 100 complete control), approximately 10 days
Outline: as §2

kochia (Bassia scoparia) [3] = assay: Test A postemergence, kochia; details: Postemergence, 0 to 100 scale (0 no effect, 100 complete control); for Kochia plant response rating: visual injury vs untreated controls after approx. 10 days
Outline: as §2

[4] = tested on: ragweed (common ragweed, Ambrosia artemisiifolia); assay: Test A preemergence, ragweed; details: Preemergence; for Plant response rating, Ragweed: 0 to 100 scale (0 no effect, 100 complete control); for Ragweed plant response rating: visual injury on 0 to 100 scale (0 no effect, 100 complete control), approximately 10 days
Outline: as §2

[5] = tested on: blackgrass (Alopecurus myosuroides); assay: Test A postemergence, blackgrass; details: Postemergence, 0 to 100 scale (0 no effect, 100 complete control); for Blackgrass plant response rating: visual injury vs untreated controls after approx. 10 days
Outline: as §2

[6] = tested on: barnyardgrass (Echinochloa crus-galli); assay: Test A postemergence, barnyardgrass; details: Postemergence, 0 to 100 scale (0 no effect, 100 complete control); for Barnyardgrass plant response rating: visual injury vs untreated controls after approx. 10 days
Outline: as §1

[7] = tested on: pigweed (Amaranthus retroflexus); assay: Test A postemergence, pigweed; details: Postemergence, 0 to 100 scale (0 no effect, 100 complete control); for Pigweed plant response rating: visual injury vs untreated controls after approx. 10 days
Outline: as §2

[8] = tested on: galium (catchweed bedstraw, Galium aparine); assay: Test A postemergence, galium; details: Postemergence, 0 to 100 scale (0 no effect, 100 complete control); for Galium plant response rating: visual injury vs untreated controls after approx. 10 days
Outline: as §1

[9] = tested on: Foxtail, Giant (giant foxtail, Setaria faberi); assay: Test A preemergence, Foxtail, Giant; details: Preemergence; for Plant response rating, Foxtail, Giant: 0 to 100 scale (0 no effect, 100 complete control); for Foxtail, Giant plant response rating: visual injury on 0 to 100 scale (0 no effect, 100 complete control), approximately 10 days
Outline: as §2

[10] = tested on: wheat (Triticum aestivum); assay: Test A postemergence, wheat; details: Postemergence, 0 to 100 scale (0 no effect, 100 complete control); for Wheat plant response rating: visual injury vs untreated controls after approx. 10 days
Outline: as §1

kochia (Bassia scoparia) [11] = assay: Test A preemergence, kochia; details: Preemergence; for Plant response rating, Kochia: 0 to 100 scale (0 no effect, 100 complete control); for Kochia plant response rating: visual injury on 0 to 100 scale (0 no effect, 100 complete control), approximately 10 days
Outline: as §2

[12] = tested on: barnyardgrass (Echinochloa crus-galli); assay: Test A preemergence, barnyardgrass; details: Preemergence; for Plant response rating, Barnyardgrass: 0 to 100 scale (0 no effect, 100 complete control); for Barnyardgrass plant response rating: visual injury on 0 to 100 scale (0 no effect, 100 complete control), approximately 10 days
Outline: as §2

[13] = tested on: Foxtail, Giant (giant foxtail, Setaria faberi); assay: Test A postemergence, Foxtail, Giant; details: Postemergence, 0 to 100 scale (0 no effect, 100 complete control); for Foxtail, Giant plant response rating: visual injury vs untreated controls after approx. 10 days
Outline: as §2

[14] = tested on: Ryegrass, Italian (Italian ryegrass, Lolium multiflorum); assay: Test A postemergence, Ryegrass, Italian; details: Postemergence, 0 to 100 scale (0 no effect, 100 complete control); for Ryegrass, Italian plant response rating: visual injury vs untreated controls after approx. 10 days
Outline: as §2

[15] = tested on: ragweed (common ragweed, Ambrosia artemisiifolia); assay: Test A postemergence, ragweed; details: Postemergence, 0 to 100 scale (0 no effect, 100 complete control); for Ragweed plant response rating: visual injury vs untreated controls after approx. 10 days
Outline: as §2

[16] = 125 g ai/ha, visual injury, approx. 10 days
[17] = 125 g ai/ha, visual injury approx. 10 days
[18] = 500 g ai/ha, visual injury approx. 10 days

C#CCN(C)C(=O)c1cc(NS(=O)(=O)C(F)(F)F)c(C)cc1C [Compound 189]
Plant response rating, Pigweed [1, 16]: 90 | Plant response rating, Pigweed ([1]; 500 g ai/ha): 100 | Plant response rating, Corn (corn (Zea mays); 125 g ai/ha): 20 | Corn plant response rating (corn (Zea mays); 500 g ai/ha): 80 | Plant response rating, Ryegrass, Italian [2, 16]: 90 | Plant response rating, Ryegrass, Italian ([2]; 500 g ai/ha): 100 | Plant response rating, Kochia (kochia (Bassia scoparia) [3]; 125 g ai/ha): 20 | Kochia plant response rating (kochia (Bassia scoparia) [3]; 500 g ai/ha): 80 | Plant response rating, Ragweed [4, 16]: 80 | Plant response rating, Ragweed ([4]; 500 g ai/ha): 90 | Plant response rating, Blackgrass ([5]; 125 g ai/ha): 30 | Blackgrass plant response rating ([5]; 500 g ai/ha): 20 | Plant response rating, Barnyardgrass ([6]; 125 g ai/ha): 80 | Barnyardgrass plant response rating ([6]; 500 g ai/ha): 90 | Plant response rating, Pigweed ([7]; 125 g ai/ha): 60 | Pigweed plant response rating ([7]; 500 g ai/ha): 90 | Plant response rating, Galium ([8]; 125 g ai/ha): 90 | Galium plant response rating ([8]; 500 g ai/ha): 90 | Plant response rating, Foxtail, Giant [9, 16]: 100 | Plant response rating, Foxtail, Giant ([9]; 500 g ai/ha): 100 | Plant response rating, Wheat ([10]; 125 g ai/ha): 50 | Wheat plant response rating ([10]; 500 g ai/ha): 70 | Plant response rating, Kochia (kochia (Bassia scoparia) [11]; [16]): 80 | Plant response rating, Kochia (kochia (Bassia scoparia) [11]; 500 g ai/ha): 100 | Plant response rating, Barnyardgrass [12, 16]: 80 | Plant response rating, Barnyardgrass ([12]; 500 g ai/ha): 100 | Plant response rating, Foxtail, Giant ([13]; 125 g ai/ha): 60 | Foxtail, Giant plant response rating ([13]; 500 g ai/ha): 90 | Plant response rating, Ryegrass, Italian ([14]; 125 g ai/ha): 80 | Ryegrass, Italian plant response rating ([14]; 500 g ai/ha): 80 | Plant response rating, Ragweed ([15]; 125 g ai/ha): 90 | Ragweed plant response rating ([15]; 500 g ai/ha): 90

CC(=O)N(c1cc(-c2ccnn(C)c2=O)c(C)cc1C)S(=O)(=O)C(F)(F)F [Compound 56]
Pigweed plant response rating ([1]; 125 g ai/ha): 40 | Plant response rating, Pigweed ([1]; 500 g ai/ha): 90 | Plant response rating, Corn (corn (Zea mays); [17]): 10 | Corn plant response rating (corn (Zea mays); 500 g ai/ha): 80 | Ryegrass, Italian plant response rating ([2]; 125 g ai/ha): 100 | Plant response rating, Ryegrass, Italian ([2]; 500 g ai/ha): 100 | Plant response rating, Kochia (kochia (Bassia scoparia) [3]; [17]): 50 | Kochia plant response rating (kochia (Bassia scoparia) [3]; 500 g ai/ha): 60 | Ragweed plant response rating ([4]; 125 g ai/ha): 70 | Plant response rating, Ragweed ([4]; 500 g ai/ha): 90 | Plant response rating, Blackgrass [5, 17]: 50 | Blackgrass plant response rating ([5]; 500 g ai/ha): 50 | Plant response rating, Barnyardgrass [6, 17]: 90 | Barnyardgrass plant response rating ([6]; 500 g ai/ha): 90 | Plant response rating, Pigweed [7, 17]: 40 | Pigweed plant response rating ([7]; 500 g ai/ha): 40 | Plant response rating, Galium [8, 17]: 90 | Galium plant response rating ([8]; 500 g ai/ha): 90 | Foxtail, Giant plant response rating ([9]; 125 g ai/ha): 0 | Plant response rating, Foxtail, Giant ([9]; 500 g ai/ha): 20 | Plant response rating, Wheat [10, 17]: 50 | Wheat plant response rating ([10]; 500 g ai/ha): 70 | Kochia plant response rating (kochia (Bassia scoparia) [11]; 125 g ai/ha): 40 | Plant response rating, Kochia (kochia (Bassia scoparia) [11]; 500 g ai/ha): 100 | Barnyardgrass plant response rating ([12]; 125 g ai/ha): 100 | Plant response rating, Barnyardgrass ([12]; 500 g ai/ha): 100 | Plant response rating, Foxtail, Giant [13, 17]: 90 | Foxtail, Giant plant response rating ([13]; 500 g ai/ha): 90 | Plant response rating, Ryegrass, Italian [14, 17]: 0 | Ryegrass, Italian plant response rating ([14]; 500 g ai/ha): 80 | Plant response rating, Ragweed [15, 17]: 60 | Ragweed plant response rating ([15]; 500 g ai/ha): 90

Cc1cc(Cl)c(C(=O)N2CCCCC2)cc1N(S(=O)(=O)C(F)(F)F)S(=O)(=O)C(F)(F)F [Compound 253]
Plant response rating, Pigweed [1, 16]: 100 | Pigweed plant response rating ([1]; 500 g ai/ha): 100 | Plant response rating, Corn (corn (Zea mays); 125 g ai/ha): 0 | Plant response rating, Corn (corn (Zea mays); [18]): 0 | Plant response rating, Ryegrass, Italian [2, 16]: 60 | Ryegrass, Italian plant response rating ([2]; 500 g ai/ha): 100 | Plant response rating, Kochia (kochia (Bassia scoparia) [3]; 125 g ai/ha): 30 | Plant response rating, Kochia (kochia (Bassia scoparia) [3]; [18]): 60 | Plant response rating, Ragweed [4, 16]: 40 | Ragweed plant response rating ([4]; 500 g ai/ha): 40 | Plant response rating, Blackgrass ([5]; 125 g ai/ha): 0 | Plant response rating, Blackgrass [5, 18]: 0 | Plant response rating, Barnyardgrass ([6]; 125 g ai/ha): 0 | Plant response rating, Barnyardgrass [6, 18]: 20 | Plant response rating, Pigweed ([7]; 125 g ai/ha): 50 | Plant response rating, Pigweed [7, 18]: 80 | Plant response rating, Galium ([8]; 125 g ai/ha): 70 | Plant response rating, Galium [8, 18]: 90 | Plant response rating, Foxtail, Giant [9, 16]: 100 | Foxtail, Giant plant response rating ([9]; 500 g ai/ha): 100 | Plant response rating, Wheat ([10]; 125 g ai/ha): 0 | Plant response rating, Wheat [10, 18]: 0 | Plant response rating, Kochia (kochia (Bassia scoparia) [11]; [16]): 70 | Kochia plant response rating (kochia (Bassia scoparia) [11]; 500 g ai/ha): 80 | Plant response rating, Barnyardgrass [12, 16]: 60 | Barnyardgrass plant response rating ([12]; 500 g ai/ha): 70 | Plant response rating, Foxtail, Giant ([13]; 125 g ai/ha): 0 | Plant response rating, Foxtail, Giant [13, 18]: 0 | Plant response rating, Ryegrass, Italian ([14]; 125 g ai/ha): 0 | Plant response rating, Ryegrass, Italian [14, 18]: 0 | Plant response rating, Ragweed ([15]; 125 g ai/ha): 30 | Plant response rating, Ragweed [15, 18]: 50
